Measured values published in patent publication US9676721B2, “Compounds and compositions for the inhibition of NAMPT” (FORMA TM, LLC, priority 2010, dated 2017).

Legend:
A2780 cells = assay: In-Vitro Cell Proliferation Assay (SRB); assay type: cell-based; details: Homo sapiens, A2780, 72 h
Experimental: In-Vitro Cell Proliferation Assay […] After overnight incubation at 37° C. and 5% CO2, the compound titrations were performed in a separate dilution plate by serially diluting the compounds in DMSO to make a 1000× stock. The compounds were then further diluted to 10× final concentration in culture media, whereupon 20 μL of each dilution was added to the plated cells with controls (e.g. DMSO and blank) to make a final volume of 200 μL. The final DMSO concentration in each well was 0.1%. The plates were then incubated for 72 hours at 37° C. in a 5% CO2 incubator. The number of viable cells was then assessed using sulforhodamine B (SRB) assay. Cells were fixed at 4° C. for 1 hour with the addition of 50 μL 30% trichloroacetic acid (TCA) to make a final concentration of 6% TCA. The plates were washed four times with H2O and allowed to dry for at least 1 hour, whereupon 100 μL of a […] SRB in 1% acetic acid solution was added to each well and incubated at room temperature for at least 30 minutes. The plates were then washed three times with 1% acetic acid, dried, and treated with 100 μL of 10 mM Tris-Base solution. The plates were then read in a microplate reader at an absorbance of 570 nm. Background was generated on a separate plate with media only. Method for Determining % Inhibition First, the signals from the background plate are averaged, then the background was subtracted from the test plates. […] Formula for Determining IC50 Values: […] Specificity of Cytotoxicity. Inhibition of NAMPT could be reversed by the addition of NAM or NMN. The specificity of the compounds were determined via cell viability assay in the presence of the compound and either NAM or NMN. Percent inhibitions were determined using the method given above.

NAMPT = NAMPT (Homo sapiens (Human), UniProt P43490); assay: Biochemical Inhibition Assay (NAMPT enzymatic reaction, NMN by mass spectrometry); details: recombinant His-tagged NAMPT 33 nM, 1 μM NAM, 30 minutes; read-out: Biochem IC50
Sequence of NAMPT (P43490 whole entry): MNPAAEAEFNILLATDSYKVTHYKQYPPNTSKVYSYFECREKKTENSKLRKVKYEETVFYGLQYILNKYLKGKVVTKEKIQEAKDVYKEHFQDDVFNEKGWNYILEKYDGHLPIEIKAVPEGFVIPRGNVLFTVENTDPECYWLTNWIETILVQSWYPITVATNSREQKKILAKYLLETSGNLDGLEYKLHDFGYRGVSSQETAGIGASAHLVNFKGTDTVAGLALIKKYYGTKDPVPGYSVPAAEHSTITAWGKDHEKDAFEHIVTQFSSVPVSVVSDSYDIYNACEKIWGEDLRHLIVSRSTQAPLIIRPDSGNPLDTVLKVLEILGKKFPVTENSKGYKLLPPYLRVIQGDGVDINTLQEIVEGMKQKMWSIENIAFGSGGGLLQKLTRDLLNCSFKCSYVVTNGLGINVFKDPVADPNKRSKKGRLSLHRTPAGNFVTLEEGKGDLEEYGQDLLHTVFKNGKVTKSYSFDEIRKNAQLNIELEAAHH
Experimental: Biochemical Inhibition Assay NAMPT Protein Purification Recombinant His-tagged NAMPT was produced in E. coli cells, purified over a Ni column, and further purified over a size-exclusion column by XTAL Biostructures. The NAMPT Enzymatic Reaction The NAMPT enzymatic reactions were carried out in Buffer A (50 mM Hepes pH 7.5, 50 mM NaCl, 5 mM MgCl2, and 1 mM THP) in 96-well V-bottom plates. The compound titrations were performed in a separate dilution plate by serially diluting the compounds in DMSO to make a 100× stock. […] Background and signal strength was determined by addition (or non-addition) of a serial dilution of NMN to a pre-quenched enzyme and cofactor mix. Quantification of NMN A mass spectrometry-based assay was used to measure the NAMPT reaction product (NMN) and the internal control (L-Cystathionine). NMN and L-Cystathionine were detected using the services of Biocius Lifesciences with the RapidFire system. In short, the NMN and L-Cystathionine are bound to a graphitic carbon cartridge in 0.1% formic acid, eluted in 30% acetonitrile buffer, and injected into a Sciex 4000 mass spectrometer. The components of the sample were ionized with electrospray ionization and the positive ions were detected. […] The fragments are quantified and the analyzed by the following method. % Inhibitions are Determined Using this Method. First the NMN signal is normalized to the L-Cystathionine signal by dividing the NMN signal by the L-Cystathionine signal for each well. The signal from the background wells are averaged and subtracted from the test plates. […] IC50s are Determined Using Excel and this Formula.

Work on `CC(C)c1cccc(S(=O)(=O)c2ccc(CNC(=NC#N)Nc3ccncc3)cc2)c1` [2-cyano-1-[(4-{[3-(propan-2-yl)benzene]sulfonyl}phenyl)methyl]-3-(pyridin-4-yl)guanidine] yielded an IC50 (A2780 cells) of 1.1 nM and an IC50 (NAMPT) of 2.9 nM.
`N#CN=C(NCc1ccc(S(=O)(=O)c2ccc(C#N)cc2)cc1)Nc1ccncc1` [2-cyano-1-({4-[(4-cyanobenzene)sulfonyl]phenyl}methyl)-3-(pyridin-4-yl)guanidine] showed an IC50 (A2780 cells) of 13.7 nM and an IC50 (NAMPT) of 5.9 nM.
In the case of `COc1cc(F)cc(S(=O)(=O)c2ccc(CNC(=NC#N)Nc3ccncc3)cc2)c1` [2-cyano-1-({4-[(3-fluoro-5-methoxybenzene)sulfonyl]phenyl}methyl)-3-(pyridin-4-yl)guanidine], the IC50 (A2780 cells) is reported as 2.1 nM and the IC50 (NAMPT) is reported as 2.3 nM.
`Cc1ccc(S(=O)(=O)c2ccc(CNC(=NC#N)Nc3ccncc3)cc2)cn1` [2-cyano-1-{[4-(6-methylpyridine-3-sulfonyl)phenyl]methyl}-3-(pyridin-4-yl)guanidine] showed an IC50 (A2780 cells) of 6.3 nM and an IC50 (NAMPT) of 1.4 nM.
In the case of `N#CN=C(NCc1ccc(S(=O)(=O)c2ccc(N3CCOCC3)nc2)cc1)Nc1ccncc1` [2-cyano-1-({4-[6-(morpholin-4-yl)pyridine-3-sulfonyl]phenyl}methyl)-3-(pyridin-4-yl)guanidine], the IC50 (A2780 cells) is reported as 3.3 nM and the IC50 (NAMPT) is reported as 1.9 nM.
For `N#CN=C(NCc1ccc(S(=O)(=O)c2cccc3ccccc23)cc1)Nc1ccncc1` [2-cyano-1-{[4-(naphthalene-1-sulfonyl)phenyl]methyl}-3-(pyridin-4-yl)guanidine], the IC50 (A2780 cells) was 3 nM and the IC50 (NAMPT) was 3.8 nM.
Molecule `CN(C)C(=O)c1cc(F)cc(S(=O)(=O)c2ccc(CNC(=NC#N)Nc3ccncc3)cc2)c1` [3-[(4-{[2-cyano-3-(pyridin-4-yl)carbamimidamido]methyl}benzene)sulfonyl]-5-fluoro-N,N-dimethylbenzamide] has an IC50 (A2780 cells) of 12.8 nM and an IC50 (NAMPT) of 4.6 nM.
Work on `N#CN=C(NCc1ccc(S(=O)(=O)c2ccc(-n3cccn3)cc2)cc1)Nc1ccncc1` [2-cyano-1-[(4-{[4-(1H-pyrazol-1-yl)benzene]sulfonyl}phenyl)methyl]-3-(pyridin-4-yl)guanidine] yielded an IC50 (A2780 cells) of 3.4 nM and an IC50 (NAMPT) of 3.3 nM.
`COc1ccccc1S(=O)(=O)c1ccc(CNC(=NC#N)Nc2ccncc2)cc1` [2-cyano-1-({4-[(2-methoxybenzene)sulfonyl]phenyl}methyl)-3-(pyridin-4-yl)guanidine] showed an IC50 (A2780 cells) of 3.9 nM and an IC50 (NAMPT) of 7.2 nM.
In the case of `N#CN=C(NCc1ccc(S(=O)(=O)c2ccc3c(c2)OCO3)cc1)Nc1ccncc1` [1-{[4-(2H-1,3-benzodioxole-5-sulfonyl)phenyl]methyl}-2-cyano-3-(pyridin-4-yl)guanidine], the IC50 (A2780 cells) is reported as 3.3 nM and the IC50 (NAMPT) is reported as 1.8 nM.
With `COc1ccc(S(=O)(=O)c2ccc(CNC(=NC#N)Nc3ccncc3)cc2)cc1OC` [2-cyano-1-({4-[(3,4-dimethoxybenzene)sulfonyl]phenyl}methyl)-3-(pyridin-4-yl)guanidine] the IC50 (A2780 cells) was 3.4 nM and the IC50 (NAMPT) was 4 nM.
`N#CN=C(NCc1ccc(S(=O)(=O)c2ccc(C(=O)N3CCCC3)cc2)cc1)Nc1ccncc1` [2-cyano-3-(pyridin-4-yl)-1-{[4-({4-[(pyrrolidin-1-yl)carbonyl]benzene}sulfonyl)phenyl]methyl}guanidine] was tested, and the IC50 (A2780 cells) was 13.4 nM and the IC50 (NAMPT) was 4.8 nM.
With `Cc1cccc(S(=O)(=O)c2ccc(CNC(=NC#N)Nc3ccncc3)cc2)c1C` [2-cyano-1-({4-[(2,3-dimethylbenzene)sulfonyl]phenyl}methyl)-3-(pyridin-4-yl)guanidine] the IC50 (A2780 cells) was 3.5 nM and the IC50 (NAMPT) was 4 nM.
`Cc1ccc(S(=O)(=O)c2ccc(CNC(=NC#N)Nc3ccncc3)cc2)cc1Cl` [1-({4-[(3-chloro-4-methylbenzene)sulfonyl]phenyl}methyl)-2-cyano-3-(pyridin-4-yl)guanidine] was tested, and the IC50 (A2780 cells) was 1.6 nM and the IC50 (NAMPT) was 1.9 nM.
For `CC(C)NC(=O)c1cccc(S(=O)(=O)c2ccc(CNC(=NC#N)Nc3ccncc3)cc2)c1` [3-[(4-{[2-cyano-3-(pyridin-4-yl)carbamimidamido]methyl}benzene)sulfonyl]-N-(propan-2-yl)benzamide], the IC50 (A2780 cells) was 16.9 nM and the IC50 (NAMPT) was 4.3 nM.
